Experimental data from US7858630B2, “D3 and 5-HT2A receptor modulators” (Hoffmann-La Roche Inc., priority 2008, dated 2010).

Key:
[1] = target: T1, human serotonin 5-HT2A receptor (Homo sapiens, UniProt P28223); experiment: Radioligand binding ([3H]-ketanserin) to membranes of HEK-293 EBNA cells expressing human 5-HT2A receptor; settings: 1.1 nM [3H]-ketanserin, HEK-293 EBNA membranes, 1 h at RT
T1 construct: expressed in transfected cells; host or cells: HEK-293 EBNA cells, transient transfection; membrane preparation
T1 sequence (P28223 whole entry): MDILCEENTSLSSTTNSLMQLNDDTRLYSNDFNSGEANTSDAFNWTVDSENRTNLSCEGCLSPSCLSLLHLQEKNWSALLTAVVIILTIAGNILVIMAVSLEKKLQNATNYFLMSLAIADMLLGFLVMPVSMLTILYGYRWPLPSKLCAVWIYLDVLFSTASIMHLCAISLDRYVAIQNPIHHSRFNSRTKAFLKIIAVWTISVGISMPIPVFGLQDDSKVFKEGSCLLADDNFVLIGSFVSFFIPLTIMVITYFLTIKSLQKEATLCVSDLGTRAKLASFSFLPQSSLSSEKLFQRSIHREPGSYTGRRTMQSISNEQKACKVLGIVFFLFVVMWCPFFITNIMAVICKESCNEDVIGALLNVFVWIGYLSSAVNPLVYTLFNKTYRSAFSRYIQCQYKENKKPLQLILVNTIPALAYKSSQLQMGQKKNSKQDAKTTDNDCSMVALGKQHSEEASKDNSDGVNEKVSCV
Method in brief: (§1)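 Membranes from HEK-293 EBNA cells transiently transfected with the receptor were incubated 1 h at RT with ten test concentrations (10 μM–0.1 nM) and ~0.7 nM [3H]-spiperone (D2), 0.5 nM [3H]-spiperone (D3) or 1.1 nM [3H]-ketanserin (5-HT2A). Nonspecific binding was set with 10 μM spiperone, bound radioactivity was read by filtration and scintillation, and Ki was taken from IC50 via Cheng-Prusoff.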

[2] = target: T2, human dopamine D3 receptor (Homo sapiens, UniProt P35462); experiment: Radioligand binding ([3H]-spiperone) to membranes of HEK-293 EBNA cells expressing human D3 receptor; settings: human D3, 0.5 nM [3H]-spiperone, HEK-293 EBNA membranes, 1 h at RT
T2 construct: expressed in transfected cells; host or cells: HEK-293 EBNA cells, transient transfection; membrane preparation
T2 sequence (P35462 whole entry): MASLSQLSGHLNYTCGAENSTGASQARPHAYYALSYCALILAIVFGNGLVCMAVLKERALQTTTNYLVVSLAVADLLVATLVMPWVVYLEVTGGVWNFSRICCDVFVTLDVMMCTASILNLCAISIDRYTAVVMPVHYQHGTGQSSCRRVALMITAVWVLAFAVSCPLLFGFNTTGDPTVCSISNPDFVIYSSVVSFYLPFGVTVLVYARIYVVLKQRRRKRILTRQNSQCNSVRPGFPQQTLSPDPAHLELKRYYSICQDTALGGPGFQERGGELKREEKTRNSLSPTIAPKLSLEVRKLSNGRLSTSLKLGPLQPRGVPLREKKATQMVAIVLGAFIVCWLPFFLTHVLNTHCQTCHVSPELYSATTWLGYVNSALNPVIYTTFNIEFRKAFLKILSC
Method in brief: as §1

[3] = target: T3, human dopamine D2 receptor (Homo sapiens, UniProt P14416); experiment: Radioligand binding ([3H]-spiperone) to membranes of HEK-293 EBNA cells expressing human D2 receptor; settings: human D2, 0.7 nM [3H]-spiperone, HEK-293 EBNA membranes, 1 h at RT
T3 construct: expressed in transfected cells; host or cells: HEK-293 EBNA cells, transient transfection; membrane preparation
T3 sequence (P14416 whole entry): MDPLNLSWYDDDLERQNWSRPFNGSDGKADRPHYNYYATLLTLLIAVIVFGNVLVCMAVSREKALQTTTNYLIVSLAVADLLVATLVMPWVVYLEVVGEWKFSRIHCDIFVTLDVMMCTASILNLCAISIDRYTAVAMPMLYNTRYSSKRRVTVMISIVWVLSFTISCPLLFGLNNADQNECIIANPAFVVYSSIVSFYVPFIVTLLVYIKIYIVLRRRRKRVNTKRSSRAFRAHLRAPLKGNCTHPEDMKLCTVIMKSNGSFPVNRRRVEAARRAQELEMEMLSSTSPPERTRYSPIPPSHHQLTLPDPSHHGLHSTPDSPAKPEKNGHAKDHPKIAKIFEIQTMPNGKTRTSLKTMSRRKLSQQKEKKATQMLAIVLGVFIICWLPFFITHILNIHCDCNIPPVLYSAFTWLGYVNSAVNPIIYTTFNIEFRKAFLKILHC
Method in brief: as §1

Compound | Ki [1] | Ki [2] | Ki [3]
COCCC(=O)N[C@H]1CC[C@H](CCN2CCN(c3noc4cc(F)c(C)cc34)CC2)CC1 [Example 108, N-trans-(4-{2-[4-(6-Fluoro-5-methyl-benzo[d]isoxazol-3-yl)-piperazin-1-yl]-ethyl}-cyclohexyl)-3-methoxy-propionamide] | 18.9 nM | 8 nM | 297 nM
Cc1cc2c(N3CCN(CC[C@H]4CC[C@H](NC(=O)CC5CC5)CC4)CC3)noc2cc1F [Example 109, 2-Cyclopropyl-N-trans-(4-{2-[4-(6-fluoro-5-methyl-benzo[d]isoxazol-3-yl)-piperazin-1-yl]-ethyl}-cyclohexyl)-acetamide] | 32.6 nM | 14.5 nM | 10000 nM
CCOCC(=O)N[C@H]1CC[C@H](CCN2CCN(c3noc4cc(F)c(C)cc34)CC2)CC1 [Example 110, 2-Ethoxy-N-trans-(4-{2-[4-(6-fluoro-5-methyl-benzo[d]isoxazol-3-yl)-piperazin-1-yl]-ethyl}-cyclohexyl)-acetamide] | 10.1 nM | 31.6 nM | 1550 nM
Cc1cc2c(N3CCN(CC[C@H]4CC[C@H](NC(=O)CC5OCCCO5)CC4)CC3)noc2cc1F [Example 111, 2-[1,3]Dioxan-2-yl-N-trans-(4-{2-[4-(6-fluoro-5-methyl-benzo[d]isoxazol-3-yl)-piperazin-1-yl]-ethyl}-cyclohexyl)-acetamide] | 7.66 nM | 10.6 nM | 4040 nM
O=C(CC1CCOCC1)N[C@H]1CC[C@H](CCN2CCN(c3noc4cc(F)ccc34)CC2)CC1 [Example 112, N-trans-(4-{2-[4-(6-Fluoro-benzo[d]isoxazol-3-yl)-piperazin-1-yl]-ethyl}-cyclohexyl)-2-(tetrahydro-pyran-4-yl)-acetamide] | 3.51 nM | 4.33 nM | 119 nM
Cc1cc2c(N3CCN(CC[C@H]4CC[C@H](NC(=O)CC5COCCO5)CC4)CC3)noc2cc1F (stereo partly drawn) [Example 113, 2-[1,4]Dioxan-2-yl-N-trans-(4-{2-[4-(6-fluoro-5-methyl-benzo[d]isoxazol-3-yl)-piperazin-1-yl]-ethyl}-cyclohexyl)-acetamide] | 14 nM | 25 nM | > 10500 nM
Cc1cc2c(N3CCN(CC[C@H]4CC[C@H](NC(=O)C[C@H](O)C(F)(F)F)CC4)CC3)noc2cc1F [Example 116, (S)-4,4,4-Trifluoro-N-trans-(4-{2-[4-(6-fluoro-5-methyl-benzo[d]isoxazol-3-yl)-piperazin-1-yl]-ethyl}-cyclohexyl)-3-hydroxy-butyramide] | 33 nM | 20 nM | 3280 nM
COC(C)C(=O)N[C@H]1CC[C@H](CCN2CCN(c3noc4cc(F)c(C)cc34)CC2)CC1 (stereo partly drawn) [Example 119, N-trans-(4-{2-[4-(6-Fluoro-5-methyl-benzo[d]isoxazol-3-yl)-piperazin-1-yl]-ethyl}-cyclohexyl)-2-methoxy-propionamide] | 10 nM | 53 nM | 2270 nM

Results, then the molecule that gave them:

Ki [1] | Ki [2] | Ki [3] | Compound
17 nM | 31 nM | > 9700 nM | Cc1cc2c(N3CCN(CC[C@H]4CC[C@H](NC(=O)C[C@@H]5COCCO5)CC4)CC3)noc2cc1F [Example 114, 2-(R)-[1,4]Dioxan-2-yl-N-trans-(4-{2-[4-(6-fluoro-5-methyl-benzo[d]isoxazol-3-yl)-piperazin-1-yl]-ethyl}-cyclohexyl)-acetamide]
10 nM | 38 nM | > 9700 nM | Cc1cc2c(N3CCN(CC[C@H]4CC[C@H](NC(=O)C[C@H]5COCCO5)CC4)CC3)noc2cc1F [Example 115, 2-(S)-[1,4]Dioxan-2-yl-N-trans-(4-{2-[4-(6-fluoro-5-methyl-benzo[d]isoxazol-3-yl)-piperazin-1-yl]-ethyl}-cyclohexyl)-acetamide]
8 nM | 33 nM | > 2000 nM | Cc1cc2c(N3CCN(CC[C@H]4CC[C@H](NC(=O)CC5CCCCO5)CC4)CC3)noc2cc1F (stereo partly drawn) [Example 117, N-trans-(4-{2-[4-(6-Fluoro-5-methyl-benzo[d]isoxazol-3-yl)-piperazin-1-yl]-ethyl}-cyclohexyl)-2-(tetrahydro-pyran-2-yl)-acetamide]
21 nM | 22 nM | 1070 nM | Cc1cc2c(N3CCN(CC[C@H]4CC[C@H](NC(=O)CC5CCCO5)CC4)CC3)noc2cc1F (stereo partly drawn) [Example 118, N-trans-(4-{2-[4-(6-Fluoro-5-methyl-benzo[d]isoxazol-3-yl)-piperazin-1-yl]-ethyl}-cyclohexyl)-2-(tetrahydro-furan-2-yl)-acetamide]
